Measurements: patent publication US20130213885A1, “FORWARD OSMOSIS SYSTEM AND PROCESS” (KING ABDULLAH UNIVERSITY OF SCIENCE AND TECHNOLOGY, priority 2012, published 2013)

Assay: Laboratory-scale forward osmosis performance test (water flux, salt flux)
Details: AL-DS
Experimental: Prior to use, CTA1 and CTA2 membranes were soaked in water for 30 minutes, and other membranes were soaked in isopropanol for 30 minutes, followed by a soaking in deionized (DI) water for 10 hours.
The specially designed cross-flow membrane cell (301) has a channel (302, 303) on each side of the membrane (304), which allows the feed solution (305) and draw solution (306) to flow through separately. Each channel has dimensions of 2.8 mm, 50 mm, and 100 mm for channel height, length, and width, respectively. Co-current flow was used with a flow rate in each channel that was controlled by a peristaltic pump (307, 308) and a flow meter (309, 310). The cross-flow rates for the feed and draw solution were both maintained at […]. A heat exchanger (311) was used to maintain the feed solution (305) and draw solution (306) at 23° C. A stirrer (318) on the feed side was also used. A weighing scale (312) connected to a computer (313) was used to monitor the weight of water permeating through the membrane from the feed to the draw side, from which the water flux was calculated. A conductivity meter (314) in the feed side was used to determine the salt concentration and thus the salt flux. A draw side conductivity meter (315) also exists to take measurements on the draw side. The laboratory scale unit (300) also comprises a feed-side thermistor (316) and a draw-side thermistor (317).

[Cl-].[Na+] [NaCl, sodium chloride]
water flux relative to sodium lignin sulfonate as draw solute (CTA1 and CTA2 membranes, feed deionized water, different osmotic pressures): doubles
salt flux relative to sodium lignin sulfonate as draw solute (CTA1 membrane, feed deionized water): about four times
salt flux relative to sodium lignin sulfonate as draw solute (CTA2 membrane, feed deionized water): about the same range
water flux, relatively stable stage (RO1 membrane, draw solute at 84 bar, feed DI, after first 10 minutes): around 4 LMH
